SMILES strings stand for the structures.

The assay deals with N202-H2BGFP tumor spheroids. Briefly: Doxorubicin treatment of N202-H2BGFP tumor spheroids in dorsal skinfold window chamber. To be noted: single dose 1 or 5 mg/kg via the tail vein after re-vascularization, nu/nu nude mice. The assay is classed as in vivo, mouse.

`COc1cccc2c1C(=O)c1c(O)c3c(c(O)c1C2=O)C[C@@](O)(C(=O)CO)C[C@@H]3O[C@H]1C[C@H](N)[C@H](O)[C@H](C)O1` [Doxorubicin]: the “effect on the growing tumor implanted on the engrafted mammary fat pad” value (orthotopic engrafted mammary fat pad, over a 2 week period, FIG. 6B) is “little to no effect”. The “effect on the growing tumor implanted on the skinfold” value (tumor implanted on skinfold, FIG. 6A) is “essentially tumor stasis”.

The record behind these values is US20110173709A1, “ECTOPIC, ORTHOTOPIC MODEL FOR REVASCULARIZATION AND TUMOR ASSESSMENT” (Sidney Kimmel Cancer Center, priority 2007, published 2011).
